From article PMC3554599, “Hydrophobic analogues of rhodamine B and rhodamine 101: potent fluorescent probes of mitochondria in living C. elegans” (Beilstein Journal of Organic Chemistry, 2012)
Read-outs that look alike come from different tables or passages of the source. Values belong to the compound of their own block, whether it stands above or below them.

Experiments:
[1] = tested on: mitochondria in living C. elegans; assay: Confocal laser scanning microscopy of living adult C. elegans treated with fluorophores; assay type: in vivo; details: for bioaccumulation among the fluorophores examined: 100 pM or 1 nM, 20× objective; for selectivity of intracellular staining: living C. elegans; for time to observable fluorescence in some animals / time until most animals became fluorescent: living adult C. elegans
[2] = tested on: C. elegans; details: N2, C. elegans, in vivo, 2 h
[3] = Quantum yield by the method of Williams in MeOH; assay type: physicochemical; details: relative to rhodamine B and rhodamine 6G
Method: (§1) The red-shifted spectra of HR101 10 compared with HRB 9 can be explained by greater delocalization of the lone pairs on nitrogen due to restricted rotation about C–N bonds conferred by the fused rings of 10. By using the method of Williams, the quantum yields of 9 and 10 were determined relative to rhodamine B (5) and rhodamine 6G (7, Figure 3, panels A and B), and the extinction coefficients of these compounds were quantified (Figure 3, panel C). The replacement of the carboxylate of rhodamine B (5) and rhodamine 101 (8) with a methyl group slightly red shifted the absorbance and emission spectra in methanol (5 nm and 8 to 9 nm, respectively). […] Additionally, a modest reduction in quantum yield of ~0.3 for both fluorophores was observed.
(§2) Figure 3 Linear regression used to determine spectroscopic parameters of HRB 9 and HR101 10 in MeOH. Panels A and B: Determination of quantum yields relative to rhodamine B (5) and rhodamine 6G (7). Panel C: Quantification of molar extinction coefficients. TEXT PRINTED IN THE PICTURE: (A) RhB 5: Φ = 0.69 | (A) Rh6G 7: Φ = 0.93 | (B) HRB 9: Φ = 0.39 | (B) HR101 10: Φ = 0.60 | (C) HRB 9: ε555 nm = 83,000 M^-1 cm^-1 | (C) HR101 10: ε576 nm = 107,000 M^-1 cm^-1

[4] = Molar extinction coefficient by linear regression of absorbance; assay type: physicochemical
Method: as §1, §2

[5] = log D by fluorescence-based shake-flask method, octanol/phosphate buffer pH 7.4; assay type: physicochemical; details: for enhanced partitioning into octanol compared with aqueous buffer, relative to parent compound: methyl analogue vs parent rhodamine B / rhodamine 101; for logD: octanol/phosphate buffer (1:1), octanol/buffer pH 7.4, fluorescence-based shake-flask, 24 h, 25 °C
Method: Values of log D were measured by dissolution of solids in 1:1 octanol/phosphate buffer (4 mL total volume, 5 mM phosphate, pH 7.4) to provide 5 mM solutions of the fluorophore. Samples were shaken for 24 h at 25 °C to equilibrate. […] Aliquots of these fractions were diluted in octanol (derived from the top fraction) or buffer (derived bottom fraction) to generate stock solutions (10×) appropriate for analysis. These stock solutions were further diluted 10-fold and analyzed in a solvent mixture comprising ethanol (80%), octanol (10%), and phosphate buffer (10%, pH 7.4). The ratio of fluorescence emission at λmax was used to calculate log D.

[6] = octanol/neutral buffer, cited from earlier work
[7] = MeOH; cited from earlier work
[8] = set-up: method as in PMID 15571431; details: 545 nm in ethanol; cited from earlier work

Compound: CCOC(=O)c1ccccc1-c1c2ccc(=[N+](CC)CC)cc-2oc2cc(N(CC)CC)ccc12 [Basic Violet 11 (6), basic violet 11, reference compound]
bioaccumulation among the fluorophores examined ([1]; 2 h): highest bioaccumulation
selectivity of intracellular staining ([1]; 2 h): low selectivity

quantum yield Φ [3]: 0.60
molar extinction coefficient ε576 nm ([4]; 576 nm in MeOH): 107,000 M^-1 cm^-1
enhanced partitioning into octanol compared with aqueous buffer, relative to parent compound [5]: ≥ 10 fold
logD [5]: 6.2
Compound: Cc1ccccc1C1=c2cc3c4c(c2Oc2c1cc1c5c2CCCN5CCC1)CCC[N+]=4CCC3 [HR101 10, 16-(2-Methylphenyl)-3-oxa-9,23-diazaheptacyclo[17.7.1.1^{5,9}.0^{2,17}.0^{4,15}.0^{23,27}.0^{13,28}]octacosa-1(27),2(17),4,9(28),13,15,18-heptaen-9-ium]
concentration conferring some toxicity [2]: ≥ 1000 µM
bioaccumulation among the fluorophores examined ([1]; 2 h): highest bioaccumulation
selectivity of intracellular staining ([1]; 2 h): most specific mitochondrial stains
time to observable fluorescence in some animals [1]: ≤ 30 min
time until most animals became fluorescent [1]: ≤ 2 h

quantum yield Φ [3]: 0.39
molar extinction coefficient ε555 nm ([4]; 555 nm in methanol): 83,000 M^-1 cm^-1
enhanced partitioning into octanol compared with aqueous buffer, relative to parent compound [5]: ≥ 10 fold
logD [5]: 5.9
Compound: CCN(CC)c1ccc2c(-c3ccccc3C)c3ccc(=[N+](CC)CC)cc-3oc2c1 [HRB 9, 6-(Diethylamino)-N,N-diethyl-9-(2-methylphenyl)-3H-xanthen-3-imine]
concentration conferring some toxicity [2]: ≥ 1000 µM
bioaccumulation among the fluorophores examined ([1]; 2 h): highest bioaccumulation
selectivity of intracellular staining ([1]; 2 h): most specific mitochondrial stains
time to observable fluorescence in some animals [1]: ≤ 30 min
time until most animals became fluorescent [1]: ≤ 2 h

Compound: CC/N=c1\cc2oc3cc(NCC)c(C)cc3c(-c3ccccc3C(=O)OCC)c-2cc1C [Rhodamine 6G (7), rhodamine 6G]
log D octanol/buffer ([6]; ref 37): 2.1 [37]
quantum yield Φ (standard) [7]: 0.93
selectivity of intracellular staining ([1]; 2 h): most specific mitochondrial stains

logD [5]: 5.2
Compound: O=C([O-])c1ccccc1C1=c2cc3c4c(c2Oc2c1cc1c5c2CCCN5CCC1)CCC[N+]=4CCC3 [Rhodamine 101 (8), rhodamine 101]
penetration into germline, cells and tissues ([1]; 60× objective, 2 h, rhodamine 101 at 100-fold higher concentration than HRB 9 and HR101 10): did not penetrate into the germline

Compound: COC(=O)c1ccccc1-c1c2ccc(=N)cc-2oc2cc(N)ccc12 [Rhodamine 123 (4), rhodamine 123]
log D octanol/buffer ([6]; listed as rhodamine 123 (4)): −0.62
log D octanol/buffer ([6]; ref 9): −0.6
log D octanol/buffer ([6]; ref 37): 0.5

Compound: rhodamine B [Rhodamine B (5)]
molar extinction coefficient [8]: 106,000 M^−1 cm^−1
log D octanol/buffer ([6]; ref 46): 2.3 [46]
quantum yield Φ (standard) [7]: 0.69
